Data reported in the supplement of paper PMC11061612.

Experiments:
Test in all cases: combination Emax (second highest fraction inhibited in the dose matrix, 72 h); higher = more inhibition; extreme values may be limits of the assay
[1] = test system: 22RV1 (Prostate Carcinoma)
In short: (§1)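 After 24 hours at 37°C and 5% CO2 in 1536-well plates, cells in DMEM/F12 or RPMI plus 10% FBS received two-drug dose matrices for 72 hours. Viability came from CellTiter-Glo 2.0 luminescence and was scaled as inhibition, anchored at 0 by vehicle wells and at 1 by blank wells. Combination Emax is taken as the second-highest inhibition in the matrix, and Bliss excess as the observed combination effect less EA + EB − EA·EB, with EA and EB the single-agent effects.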

[2] = test system: A2780 (Ovarian Carcinoma)
In short: as §1

[3] = test system: AU565 (Breast Carcinoma)
In short: as §1

[4] = test system: CA46 (Burkitt's Lymphoma)
In short: as §1

[5] = test system: CAL-27 (Oral Cavity Carcinoma)
In short: as §1

[6] = test system: EW-7 (Ewing's Sarcoma)
In short: as §1

[7] = test system: GCT (Other Solid Carcinomas)
In short: as §1

[8] = test system: JHH-2 (Hepatocellular Carcinoma)
In short: as §1

[9] = test system: JIMT-1 (Breast Carcinoma)
In short: as §1

[10] = test system: KYSE-140 (Esophageal Squamous Cell Carcinoma)
In short: as §1

[11] = test system: LS-411N (Colorectal Carcinoma)
In short: as §1

[12] = test system: LU-165 (Small Cell Lung Carcinoma)
In short: as §1

[13] = test system: MDA-MB-436 (Breast Carcinoma)
In short: as §1

[14] = test system: NCI-H1651 (Lung Adenocarcinoma)
In short: as §1

[15] = test system: NCI-H1703 (Squamous Cell Lung Carcinoma)
In short: as §1

[16] = test system: NCI-H716 (Colorectal Carcinoma)
In short: as §1

[17] = test system: OACp4C (Esophageal Adenocarcinoma)
In short: as §1

[18] = test system: PEO1 (Ovarian Carcinoma)
In short: as §1

[19] = test system: UACC-812 (Breast Carcinoma)
In short: as §1

[20] = test system: huH-1 (Hepatocellular Carcinoma)
In short: as §1

Row | Structure (SMILES) | combination Emax [1] | combination Emax [2] | combination Emax [3] | combination Emax [4] | combination Emax [5] | combination Emax [6] | combination Emax [7] | combination Emax [8] | combination Emax [9] | combination Emax [10] | combination Emax [11] | combination Emax [12] | combination Emax [13] | combination Emax [14] | combination Emax [15] | combination Emax [16] | combination Emax [17] | combination Emax [18] | combination Emax [19] | combination Emax [20]
1 | Cc1c2c(nn1C)CSCc1cc(n(C)n1)CSc1cc(c3ccccc3c1)OCCCc1c(C(=O)O)n(C)c3c-2c(Cl)ccc13 [AZD5991] + C=CCn1c(=O)c2cnc(Nc3ccc(N4CCN(C)CC4)cc3)nc2n1-c1cccc(C(C)(C)O)n1 [AZD1775] (first compound max 1 µM, partner max 1 µM) | 0.453 | 0.858 | 1 | 0.633 | 0.972 | 0.919 | 0.556 | 0.58 | 0.763 | 0.905 | 0.741 | 0.441 | 0.289 | 0.813 | 0.954 | 0.611 | 0.951 | 0.397 | 0.478 | 0.552
2 | Cc1c2c(nn1C)CSCc1cc(n(C)n1)CSc1cc(c3ccccc3c1)OCCCc1c(C(=O)O)n(C)c3c-2c(Cl)ccc13 [AZD5991] + C[C@@H]1COCCN1C2=NC(=NC(=C2)C3(CC3)[S@](=N)(=O)C)C4=C5C=CNC5=NC=C4 [AZD6738] (first compound max 1 µM, 7x7, partner max 10 µM) | 0.71 | 0.922 | 1 | 0.449 | 1 | 0.998 | 0.411 | 0.703 | 0.723 | 0.925 | 0.772 | 0.321 | 0.334 | 0.714 | 0.961 | 0.574 | 0.851 | 0.522 | 0.674 | 0.623
3 | Cc1c2c(nn1C)CSCc1cc(n(C)n1)CSc1cc(c3ccccc3c1)OCCCc1c(C(=O)O)n(C)c3c-2c(Cl)ccc13 [AZD5991] + C[C@@H](Nc1cc(F)cc(F)c1)c1cc(C(=O)N(C)C)cc2c(=O)cc(N3CCOCC3)oc12 [AZD8186] (first compound max 1 µM, 7x7, partner max 3 µM) | 0.48 | 0.835 | 1 | 0.167 | 0.936 | 0.3 | 0.454 | 0.768 | 0.304 | 0.332 | 0.178 | 0.226 | 0.358 | 0.155 | 0.87 | 0.265 | 0.664 | 0.257 | 0.649 | 0.192
4 | Cc1c2c(nn1C)CSCc1cc(n(C)n1)CSc1cc(c3ccccc3c1)OCCCc1c(C(=O)O)n(C)c3c-2c(Cl)ccc13 [AZD5991] + Cc1cc2ncnn2cc1Nc1ncc2c(n1)n(C1CCOCC1)c(=O)n2C [AZD7648] (first compound max 1 µM, 7x7, partner max 10 µM) | 0.575 | 0.751 | 1 | 0.281 | 0.985 | 0.652 | 0.352 | 0.596 | 0.255 | 0.401 | 0.116 | 0.265 | 0.226 | 0.33 | 0.891 | 0.228 | 0.485 | 0.178 | 0.488 | 0.337
5 | Cc1c2c(nn1C)CSCc1cc(n(C)n1)CSc1cc(c3ccccc3c1)OCCCc1c(C(=O)O)n(C)c3c-2c(Cl)ccc13 [AZD5991] + Cn1cnc2c(F)c(Nc3ccc(Br)cc3Cl)c(C(=O)NOCCO)cc21 [Selumetinib] (first compound max 1 µM, 7x7, partner max 3 µM) | 0.498 | 0.538 | 1 | 0.0912 | 0.988 | 0.271 | 0.427 | 0.342 | 0.284 | 0.439 | 0.826 | 0.161 | 0.152 | 0.218 | 0.856 | 0.515 | 0.835 | 0.25 | 0.579 | 0.152
6 | C[C@@H]1COCCN1c1cc(C2([S@](C)(=N)=O)CC2)nc(-c2ccnc3[nH]ccc23)n1 [AZD6738] + O=C(c1cc(Cc2n[nH]c(=O)c3ccccc23)ccc1F)N1CCN(C(=O)C2CC2)CC1 [Olaparib] (first compound max 10 µM, 7x7, partner max 10 µM) | 0.631 | 0.832 | 0.449 | 0.412 | 0.793 | 0.929 | 0.392 | 0.674 | 0.598 | 0.744 | 0.383 | 0.309 | 0.349 | 0.729 | 0.847 | 0.468 | 0.71 | 0.585 | 0.351 | 0.685
7 | COc1cccc2c1C(=O)c1c(O)c3c(c(O)c1C2=O)C[C@@](O)(C(=O)CO)C[C@@H]3O[C@H]1C[C@H](N)[C@H](O)[C@H](C)O1 [Doxorubicin] + Cc1cc2ncnn2cc1Nc1ncc2c(n1)n(C1CCOCC1)c(=O)n2C [AZD7648] (first compound max 1 µM, 7x7, partner max 10 µM) | 0.805 | 0.934 | 0.733 | 0.777 | 0.741 | 0.889 | 0.625 | 0.627 | 0.697 | 0.442 | 0.508 | 0.337 | 0.504 | 0.712 | 0.932 | 0.305 | 0.783 | 0.419 | 0.296 | 0.55
8 | COc1cccc(OCCCN)c1-c1cc(Nc2cnc(C#N)cn2)n[nH]1 [Prexasertib] + C=CCn1c(=O)c2cnc(Nc3ccc(N4CCN(C)CC4)cc3)nc2n1-c1cccc(C(C)(C)O)n1 [AZD1775] (first compound max 1 µM, partner max 1 µM) | 0.619 | 0.945 | 0.891 | 0.757 | 0.777 | 0.962 | 0.644 | 0.9 | 0.869 | 0.959 | 0.759 | 0.604 | 0.599 | 0.822 | 0.985 | 0.664 | 0.835 | 0.478 | 0.662 | 0.811
9 | COc1cccc(OCCCN)c1-c1cc(Nc2cnc(C#N)cn2)n[nH]1 [Prexasertib] + CCc1c2c(nc3ccc(O)cc13)-c1cc3c(c(=O)n1C2)COC(=O)[C@]3(O)CC [SN-38] (first compound max 1 µM, 7x7, partner max 0.3 µM) | 0.727 | 0.857 | 0.949 | 0.837 | 0.948 | 0.96 | 0.842 | 0.95 | 0.87 | 0.945 | 0.867 | 0.642 | 0.693 | 0.879 | 0.971 | 0.726 | 0.918 | 0.71 | 0.604 | 0.767
10 | COc1cccc(OCCCN)c1-c1cc(Nc2cnc(C#N)cn2)n[nH]1 [Prexasertib] + CN(C)CCCOc1ccc(-c2ccc3ncc4c(c3c2)n(C2CCOCC2)c(=O)n4C)cn1 [AZD0156] (first compound max 1 µM, 7x7, partner max 1 µM) | 0.532 | 0.673 | 0.714 | 0.745 | 0.421 | 0.981 | 0.324 | 0.837 | 0.869 | 0.959 | 0.782 | 0.561 | 0.41 | 0.677 | 0.966 | 0.662 | 0.672 | 0.388 | 0.537 | 0.756
11 | COc1cccc(OCCCN)c1-c1cc(Nc2cnc(C#N)cn2)n[nH]1 [Prexasertib] + C[C@@H]1COCCN1C2=NC(=NC(=C2)C3(CC3)[S@](=N)(=O)C)C4=C5C=CNC5=NC=C4 [AZD6738] (first compound max 1 µM, 7x7, partner max 10 µM) | 0.655 | 0.825 | 0.633 | 0.599 | 0.504 | 0.971 | 0.315 | 0.854 | 0.857 | 0.959 | 0.795 | 0.565 | 0.473 | 0.722 | 0.97 | 0.616 | 0.737 | 0.489 | 0.542 | 0.762
12 | COc1cccc(OCCCN)c1-c1cc(Nc2cnc(C#N)cn2)n[nH]1 [Prexasertib] + Cc1cc2ncnn2cc1Nc1ncc2c(n1)n(C1CCOCC1)c(=O)n2C [AZD7648] (first compound max 1 µM, 7x7, partner max 10 µM) | 0.575 | 0.737 | 0.745 | 0.653 | 0.426 | 0.971 | 0.36 | 0.891 | 0.864 | 0.953 | 0.753 | 0.58 | 0.431 | 0.787 | 0.951 | 0.662 | 0.649 | 0.415 | 0.546 | 0.762
13 | COc1cccc(OCCCN)c1-c1cc(Nc2cnc(C#N)cn2)n[nH]1 [Prexasertib] + O=C(c1cc(Cc2n[nH]c(=O)c3ccccc23)ccc1F)N1CCN(C(=O)C2CC2)CC1 [Olaparib] (first compound max 1 µM, 7x7, partner max 10 µM) | 0.516 | 0.71 | 0.735 | 0.464 | 0.78 | 0.955 | 0.633 | 0.9 | 0.788 | 0.826 | 0.498 | 0.424 | 0.509 | 0.797 | 0.978 | 0.616 | 0.642 | 0.388 | 0.558 | 0.778
